The results in this text go back to patent publication US20090036448A1, “PYRIMIDINE DERIVATIVES AND METHODS OF TREATMENT RELATED TO THE USE THEREOF” (TAISHO PHARMECUTICAL CO., LTD., priority 2004, published 2009).

Sequence of MCH receptor (Q99705 whole entry): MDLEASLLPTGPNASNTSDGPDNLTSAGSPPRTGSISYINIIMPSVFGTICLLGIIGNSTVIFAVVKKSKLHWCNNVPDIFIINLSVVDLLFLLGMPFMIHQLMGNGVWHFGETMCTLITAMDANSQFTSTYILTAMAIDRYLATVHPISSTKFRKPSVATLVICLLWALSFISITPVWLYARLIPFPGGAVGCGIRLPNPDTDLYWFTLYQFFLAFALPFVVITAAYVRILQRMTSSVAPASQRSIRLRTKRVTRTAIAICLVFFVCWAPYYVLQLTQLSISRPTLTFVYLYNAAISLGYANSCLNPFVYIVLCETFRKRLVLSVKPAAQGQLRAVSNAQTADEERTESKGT

The assay addresses MCH receptor (Homo sapiens, UniProt Q99705). As to the kind of experiment: Receptor binding assay with Radiolabelled MCH Ligand. Also on record: expressed in transfected cells; host or cells: 293 cells (human kidney, ATCC), transient transfection; crude membranes. The conditions noted are these: class by percent of control at 10^-7 M or IC50. Put shortly: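 This was a filtration radioligand displacement assay: compounds, first tested at 1 and 0.1 μM and then over a range, inhibited binding of a labelled MCH ligand to transfected 293-cell membranes at room temperature for 60–120 min. Specific binding excluded a cold-MCH nonspecific signal. Ki was derived from IC50 via Cheng-Prusoff, using an independently measured KD.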
With `Cc1nc(N[C@H]2CC[C@@H](NC(=O)Nc3ccc(Cl)cc3C)CC2)cc(N(C)C)n1` [compound 418, N-(4-chloro-2-methylphenyl)-N′-(cis-4-{[6-(dimethylaminio)-2-methylpyrimidin-4-yl]amino}cyclohexyl)urea], the class was 3 (Class 3: The value of percent of control at 10^−7 M was more than 60% or the value of IC50 was more than 200 nM.).

As to `Cc1nc(N[C@H]2CC[C@@H](NC(=O)C=C3c4ccccc4-c4ccccc43)CC2)cc(N(C)C)n1` [compound 352], the class was 3 (Class 3: The value of percent of control at 10^−7 M was more than 60% or the value of IC50 was more than 200 nM.).

On to `Cc1nc(N[C@H]2CC[C@@H](NCCOc3ccccc3[N+](=O)[O-])CC2)cc(N(C)C)n1` [compound 385], for which the class was 3 (Class 3: The value of percent of control at 10^−7 M was more than 60% or the value of IC50 was more than 200 nM.).

Turning to `Cc1nc(N[C@H]2CC[C@@H](NS(=O)(=O)Cc3cccc(C(F)(F)F)c3)CC2)cc(N(C)C)n1` [compound 472], the class is 3 (Class 3: The value of percent of control at 10^−7 M was more than 60% or the value of IC50 was more than 200 nM.).

On to `COC(=O)c1ccc(S(=O)(=O)N[C@H]2CC[C@@H](Nc3cc(N(C)C)nc(C)n3)CC2)n1C` [compound 507], for which the class is given as 3 (Class 3: The value of percent of control at 10^−7 M was more than 60% or the value of IC50 was more than 200 nM.).

For `CC(=O)N[C@H]1CC[C@@H](Nc2cc(N(C)C)nc(C)n2)CC1` [compound 199], the class is reported as 3 (Class 3: The value of percent of control at 10^−7 M was more than 60% or the value of IC50 was more than 200 nM.).

Consider `Cc1nc(N[C@H]2CC[C@@H](NC(=O)Nc3c(F)cc(Br)cc3Br)CC2)cc(N(C)C)n1` [compound 431], for which the class is listed as 3 (Class 3: The value of percent of control at 10^−7 M was more than 60% or the value of IC50 was more than 200 nM.).

For `Cc1nc(N[C@H]2CC[C@@H](NC(=O)Cc3ccc(OC(F)(F)F)cc3)CC2)cc(N(C)C)n1` [compound 313], the class is 3 (Class 3: The value of percent of control at 10^−7 M was more than 60% or the value of IC50 was more than 200 nM.).

On to `Cc1nc(N[C@H]2CC[C@@H](NC(=O)c3ccccc3C(=O)Nc3cccc4ccccc34)CC2)cc(N(C)C)n1` [compound 332], for which the class is listed as 3 (Class 3: The value of percent of control at 10^−7 M was more than 60% or the value of IC50 was more than 200 nM.).

In the case of `Cc1nc(N[C@H]2CC[C@@H](NCc3cnn(C)c3Cl)CC2)cc(N(C)C)n1` [compound 410], the class was 3 (Class 3: The value of percent of control at 10^−7 M was more than 60% or the value of IC50 was more than 200 nM.).

For the molecule `Cc1nc(N[C@H]2CC[C@@H](NC(=O)C3CCCC3)CC2)cc(N(C)C)n1` [compound 253, N-(cis-4-{[6-(dimethylamino)-2-methylpyrimidin-4-yl]amino}cyclohexyl)cyclopentanecarboxamide], the class was 3 (Class 3: The value of percent of control at 10^−7 M was more than 60% or the value of IC50 was more than 200 nM.).

As to `COc1ccc(CCCC(=O)N[C@H]2CC[C@@H](Nc3cc(N(C)C)nc(C)n3)CC2)cc1OC` [compound 340], the class is listed as 3 (Class 3: The value of percent of control at 10^−7 M was more than 60% or the value of IC50 was more than 200 nM.).

Regarding `CCCCCCCOc1ccc(CN[C@H]2CC[C@@H](Nc3cc(N(C)C)nc(C)n3)CC2)cc1` [compound 396], the class is reported as 3 (Class 3: The value of percent of control at 10^−7 M was more than 60% or the value of IC50 was more than 200 nM.).

`Cc1nc(N[C@H]2CC[C@@H](NC(=O)C3CC(=O)N(Cc4cccs4)C3)CC2)cc(N(C)C)n1` (relative stereo) [compound 282]: the class is 3 (Class 3: The value of percent of control at 10^−7 M was more than 60% or the value of IC50 was more than 200 nM.).

`Cc1nc(N[C@H]2CC[C@@H](NC(=O)C(C)c3ccc(-c4ccccc4)c(F)c3)CC2)cc(N(C)C)n1` (relative stereo) [compound 284]: the class was 3 (Class 3: The value of percent of control at 10^−7 M was more than 60% or the value of IC50 was more than 200 nM.).

For the molecule `Cc1nc(N[C@H]2CC[C@@H](NCc3cnn(-c4ccc([N+](=O)[O-])cc4)c3C(F)(F)F)CC2)cc(N(C)C)n1` [compound 380], the class is on record as 3 (Class 3: The value of percent of control at 10^−7 M was more than 60% or the value of IC50 was more than 200 nM.).

For `CCc1cccc(C(C)C)c1NC(=O)N[C@H]1CC[C@@H](Nc2cc(N(C)C)nc(C)n2)CC1` [compound 419], the class is 3 (Class 3: The value of percent of control at 10^−7 M was more than 60% or the value of IC50 was more than 200 nM.).

For the molecule `Cc1ccc(C(=O)N[C@H]2CC[C@@H](Nc3cc(N(C)C)nc(C)n3)CC2)cc1` [compound 242], the class is 3 (Class 3: The value of percent of control at 10^−7 M was more than 60% or the value of IC50 was more than 200 nM.).

In the case of `Cc1nc(N[C@H]2CC[C@@H](NC(=O)C3CC3)CC2)cc(N(C)C)n1` [compound 211], the class was 3 (Class 3: The value of percent of control at 10^−7 M was more than 60% or the value of IC50 was more than 200 nM.).

For `Cc1nc(N[C@H]2CC[C@@H](NC(=O)NC(C)c3cccc4ccccc34)CC2)cc(N(C)C)n1` (relative stereo) [compound 415, N-(cis-4-{[6-(dimethylamino)-2-methylpyrimidin-4-yl]amino}cyclohexyl)-N′-[1-(1-naphthyl)ethyl]urea], the class is reported as 1 (Class 1: The value of percent of control at 10^−7 M was less than 40% or the value of IC50 was less than 50 nM.).

Consider `Cc1nc(N[C@H]2CC[C@@H](NC(=O)Cc3ccccc3Br)CC2)cc(N(C)C)n1` [compound 264], for which the class is listed as 3 (Class 3: The value of percent of control at 10^−7 M was more than 60% or the value of IC50 was more than 200 nM.).

For `Cc1nc(N[C@H]2CC[C@@H](NCC3(c4ccc(Cl)cc4)CCCC3)CC2)cc(N(C)C)n1` [compound 365], the class was 3 (Class 3: The value of percent of control at 10^−7 M was more than 60% or the value of IC50 was more than 200 nM.).

Turning to `Cc1nc(N[C@H]2CC[C@@H](NS(=O)(=O)c3ccc(Cl)c(Cl)c3)CC2)cc(N(C)C)n1` [compound 502], the class was 3 (Class 3: The value of percent of control at 10^−7 M was more than 60% or the value of IC50 was more than 200 nM.).

Turning to `Cc1nc(N[C@H]2CC[C@@H](NC(=O)c3ccc(F)cc3C(F)(F)F)CC2)cc(N(C)C)n1` [compound 249], the class is recorded as 3 (Class 3: The value of percent of control at 10^−7 M was more than 60% or the value of IC50 was more than 200 nM.).

Regarding `CCOC(=O)c1c(S(=O)(=O)N[C@H]2CC[C@@H](Nc3cc(N(C)C)nc(C)n3)CC2)c(-c2ccc(Cl)cc2)n(-c2ccccc2)c1C` [compound 514], the class is on record as 3 (Class 3: The value of percent of control at 10^−7 M was more than 60% or the value of IC50 was more than 200 nM.).

As to `Cc1nc(N[C@H]2CC[C@@H](NCc3scc(S(=O)(=O)c4ccc(Cl)cc4)c3C)CC2)cc(N(C)C)n1` [compound 367], the class is given as 3 (Class 3: The value of percent of control at 10^−7 M was more than 60% or the value of IC50 was more than 200 nM.).

Turning to `Cc1nc(N[C@H]2CC[C@@H](NC(=O)CC3CCCCC3)CC2)cc(N(C)C)n1` [compound 279], the class is 3 (Class 3: The value of percent of control at 10^−7 M was more than 60% or the value of IC50 was more than 200 nM.).

`Cc1nc(N[C@H]2CC[C@@H](NCc3cc4ccccc4s3)CC2)cc(N(C)C)n1` [compound 357]: the class is 3 (Class 3: The value of percent of control at 10^−7 M was more than 60% or the value of IC50 was more than 200 nM.).

In the case of `Cc1nc(N[C@H]2CC[C@@H](NC(=O)c3ccc4c(c3)C(=O)c3ccccc3C4=O)CC2)cc(N(C)C)n1` [compound 198], the class is listed as 3 (Class 3: The value of percent of control at 10^−7 M was more than 60% or the value of IC50 was more than 200 nM.).

On to `Cc1nc(N[C@H]2CC[C@@H](NC(=O)Nc3c(Br)cc(Br)cc3Br)CC2)cc(N(C)C)n1` [compound 429, N-(cis-4-{[6-(dimethylamino)-2-methylpyrimidin-4-yl]amino}cyclohexyl)-N′-(2,4,6-tribromophenyl)urea], for which the class is recorded as 1 (Class 1: The value of percent of control at 10^−7 M was less than 40% or the value of IC50 was less than 50 nM.).

For `Cc1nc(N[C@H]2CC[C@@H](NC(=O)c3cccs3)CC2)cc(N(C)C)n1` [compound 243], the class was 3 (Class 3: The value of percent of control at 10^−7 M was more than 60% or the value of IC50 was more than 200 nM.).

Consider `Cc1nc(N[C@H]2CC[C@@H](NC(=O)c3cccc([N+](=O)[O-])c3)CC2)cc(N(C)C)n1` [compound 232, N-(cis-4-{[6-(dimethylamino)-2-methylpyrimidin-4-yl]amino}cyclohexyl)-3-nitrobenzamide], for which the class is reported as 3 (Class 3: The value of percent of control at 10^−7 M was more than 60% or the value of IC50 was more than 200 nM.).

In the case of `Cc1nc(N[C@H]2CC[C@@H](NC(=O)c3ccc(-c4cnco4)cc3)CC2)cc(N(C)C)n1` [compound 347], the class is listed as 3 (Class 3: The value of percent of control at 10^−7 M was more than 60% or the value of IC50 was more than 200 nM.).

On to `COc1ccc2c(CC(=O)N[C@H]3CC[C@@H](Nc4cc(N(C)C)nc(C)n4)CC3)cc(=O)oc2c1` [compound 291], for which the class is listed as 3 (Class 3: The value of percent of control at 10^−7 M was more than 60% or the value of IC50 was more than 200 nM.).

Regarding `Cc1nc(N[C@H]2CC[C@@H](NC(=O)/C=C/c3cccc(C(F)(F)F)c3)CC2)cc(N(C)C)n1` [compound 262], the class is 3 (Class 3: The value of percent of control at 10^−7 M was more than 60% or the value of IC50 was more than 200 nM.).

As for `Cc1nc(N[C@H]2CC[C@@H](NS(=O)(=O)c3ccc(Cl)c4nonc34)CC2)cc(N(C)C)n1` [compound 521], the class is recorded as 3 (Class 3: The value of percent of control at 10^−7 M was more than 60% or the value of IC50 was more than 200 nM.).
